Results reported in patent US20240083900A1, “PYRAZOLO[1,5-A]PYRAZINE DERIVATIVES AS BTK INHIBITORS” (BIOGEN MA INC., priority 2020, published 2024).
Read-outs that look alike come from different tables or passages of the source.

Experiments:
[1] = test system: CD69 expression on CD19+ B cells in human whole blood stimulated with anti-human IgD; test: In Vitro whole blood CD69 Assay; assay type: cell-based
[2] = biological target: BTK (Homo sapiens (Human), UniProt Q06187); test: In Vitro BTK Kinase Assay: Btk-PolyGAT-LS Assay; assay type: biochemical; details: BTK enzyme 0.25 nM, ATP 10 μM, polyGAT 100 nM, 30 minutes incubation, TRF readout; read-out: IC50
In short: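 Human BTK activity was measured with final 10 μM ATP and 100 nM polyGAT substrate in pH 7.5 Tris buffer with 10 mM MgCl2, DTT, Triton X-100 and casein.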

[3] = Homo sapiens, B-cell, human heparinized whole blood, anti-human IgD stimulation overnight, percentage of CD19+ B cells expressing CD69, flow cytometry, read-out: IC50

Sequence of BTK (Q06187 whole entry): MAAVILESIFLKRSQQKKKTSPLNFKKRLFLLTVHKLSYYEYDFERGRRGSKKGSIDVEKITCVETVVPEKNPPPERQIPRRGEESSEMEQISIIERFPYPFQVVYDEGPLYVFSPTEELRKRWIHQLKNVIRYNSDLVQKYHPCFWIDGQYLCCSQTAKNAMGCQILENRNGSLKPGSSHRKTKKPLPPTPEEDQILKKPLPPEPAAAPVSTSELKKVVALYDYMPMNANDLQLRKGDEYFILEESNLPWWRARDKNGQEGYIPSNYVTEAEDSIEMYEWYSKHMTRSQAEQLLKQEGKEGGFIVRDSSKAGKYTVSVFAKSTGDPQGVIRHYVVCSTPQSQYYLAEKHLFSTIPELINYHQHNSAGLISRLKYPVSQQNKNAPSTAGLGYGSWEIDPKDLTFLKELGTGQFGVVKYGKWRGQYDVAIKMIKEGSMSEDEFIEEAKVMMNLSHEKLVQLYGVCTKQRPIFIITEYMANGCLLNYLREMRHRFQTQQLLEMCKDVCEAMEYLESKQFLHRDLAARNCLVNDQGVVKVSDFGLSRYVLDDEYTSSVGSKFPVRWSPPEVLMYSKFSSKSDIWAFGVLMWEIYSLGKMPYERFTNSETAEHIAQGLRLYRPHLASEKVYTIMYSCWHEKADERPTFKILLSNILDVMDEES

| Structure (SMILES) | IC50 [1, 3] [nM] | further results |
| --- | --- | --- |
| C=CC(=O)N(C)[C@@H]1CC[C@H](Oc2nc(-c3cnn(C)c3)cn3nccc23)C1 (relative stereo) [Example 143, N-methyl-N-((cis)-3-((6-(1-methyl-1H-pyrazol-4-yl)pyrazolo[1,5-a]pyrazin-4-yl)oxy)cyclopentyl)acrylamide] | < 1000 |  |
| C=CC(=O)N1CCC(Oc2nc(-c3cnn(C)c3)cn3nccc23)CC1 [Example 2, 1-(4-((6-(1-methyl-1H-pyrazol-4-yl)pyrazolo[1,5-a]pyrazin-4-yl)oxy)piperidin-1-yl)prop-2-en-1-one] | > 10000 |  |
| C=CC(=O)N1CCC[C@@H](Oc2nc(-c3cnn(C)c3)cn3nccc23)C1 [Example 4, (R)-1-(3-((6-(1-methyl-1H-pyrazol-4-yl)pyrazolo[1,5-a]pyrazin-4-yl)oxy)piperidin-1-yl)prop-2-en-1-one] | > 10000 |  |
| Cn1cc(-c2cn3nccc3c(OC3CCN(C(=O)/C=C\CCl)CC3)n2)cn1 [Example 8, (Z)-4-chloro-1-(4-((6-(1-methyl-1H-pyrazol-4-yl)pyrazolo[1,5-a]pyrazin-4-yl)oxy)piperidin-1-yl)but-2-en-1-one] | 1000 to 10000 |  |
| C=CC(=O)N1CC[C@@H](Oc2nc(-c3cnn(C)c3)cn3nccc23)C1 [Example 11, (R)-1-(3-((6-(1-methyl-1H-pyrazol-4-yl)pyrazolo[1,5-a]pyrazin-4-yl)oxy)pyrrolidin-1-yl)prop-2-en-1-one] | > 10000 |  |
| C=CC(=O)N1CCC[C@@H](Oc2nc(-c3cnn(C)c3)cn3nccc23)CC1 [Example 29, (R)-1-(4-((6-(1-methyl-1H-pyrazol-4-yl)pyrazolo[1,5-a]pyrazin-4-yl)oxy)azepan-1-yl)prop-2-en-1-one] | < 1000 |  |
| C=CC(=O)N(C)[C@H]1C[C@@](C)(Oc2nc(-c3cnn(C)c3)cn3nccc23)C1 [Example 79, N-methyl-N-((1s,3s)-3-methyl-3-((6-(1-methyl-1H-pyrazol-4-yl)pyrazolo[1,5-a]pyrazin-4-yl)oxy)cyclobutyl)acrylamide] |  | IC50 ([1]; Homo sapiens, B-cell): < 1000 nM |
| C=CC(=O)N(C)C12CCC(Oc3nc(-c4cnn(C)c4)cn4nccc34)(C1)C2 [Example 99, N-methyl-N-(4-((6-(1-methyl-1H-pyrazol-4-yl)pyrazolo[1,5-a]pyrazin-4-yl)oxy)bicyclo[2.1.1]hexan-1-yl)acrylamide] | < 1000 |  |
| C=CC(=O)N(C)[C@H]1CC[C@@H](Oc2nc(-c3cnn(C)c3)cn3nccc23)C1 [Example 145, N-methyl-N-((1S,3R)-3-((6-(1-methyl-1H-pyrazol-4-yl)pyrazolo[1,5-a]pyrazin-4-yl)oxy)cyclopentyl)acrylamide] | < 1000 |  |
| C=CC(=O)N(C)[C@]1(C)C[C@H](Oc2nc(-c3cnn(C)c3)cn3nccc23)C1 [Example 158, Cis N-methyl-N-(1-methyl-3-((6-(1-methyl-1H-pyrazol-4-yl)pyrazolo[1,5-a]pyrazin-4-yl)oxy)cyclobutyl)acrylamide] |  | IC50 ([1]; human heparinized whole blood, anti-human IgD stimulation overnight, percentage of CD19+ B cells expressing CD69, flow cytometry, read-out: IC50): < 1000 nM |
| C=CC(=O)N1C[C@H]2C[C@@H](Oc3nc(-c4cnn(C)c4)cn4nccc34)C[C@@H]1C2 [Example 167, 1-((1R,3R,5S)-3-((6-(1-methyl-1H-pyrazol-4-yl)pyrazolo[1,5-a]pyrazin-4-yl)oxy)-6-azabicyclo[3.2.1]octan-6-yl)prop-2-en-1-one] | < 1000 |  |
| C=CC(=O)N1C[C@@H]2C[C@H](Oc3nc(-c4cnn(C)c4)cn4nccc34)C[C@H]1C2 [Example 168, 1-((1S,3S,5R)-3-((6-(1-methyl-1H-pyrazol-4-yl)pyrazolo[1,5-a]pyrazin-4-yl)oxy)-6-azabicyclo[3.2.1]octan-6-yl)prop-2-en-1-one] | 1000 to 10000 |  |
| C=CC(=O)N(C)[C@H]1CCC[C@@H](Oc2nc(-c3cnn(C)c3)cn3nccc23)C1 [Example 175, N-methyl-N-((1S,3R)-3-((6-(1-methyl-1H-pyrazol-4-yl)pyrazolo[1,5-a]pyrazin-4-yl)oxy)cyclohexyl)acrylamide] | < 1000 |  |
| C=CC(=O)N(C)[C@@H]1CCC[C@H](Oc2nc(-c3cnn(C)c3)cn3nccc23)C1 [Example 176, N-methyl-N—((1R,3S)-3-((6-(1-methyl-1H-pyrazol-4-yl)pyrazolo[1,5-a]pyrazin-4-yl)oxy)cyclohexyl)acrylamide] | 1000 to 10000 |  |
| C=CC(=O)N(C)[C@H]1C[C@H](Oc2nc(-c3cnn(C)c3)cn3nccc23)C1 [Example 185, N-methyl-N-((trans)-3-((6-(1-methyl-1H-pyrazol-4-yl)pyrazolo[1,5-a]pyrazin-4-yl)oxy)cyclobutyl)acrylamide] | 1000 to 10000 |  |
| C=CC(=O)N1CC[C@@H]2[C@H]1C[C@]2(C)Oc1nc(-c2cnn(C)c2)cn2nccc12 [Example 190, 1-((1R,5R,6S)-6-methyl-6-((6-(1-methyl-1H-pyrazol-4-yl)pyrazolo[1,5-a]pyrazin-4-yl)oxy)-2-azabicyclo[3.2.0]heptan-2-yl)prop-2-en-1-one] | < 1000 |  |

| Structure (SMILES) | IC50 [1, 3] [nM] | further results |
| --- | --- | --- |
| C=CC(=O)N1CC[C@H]2[C@@H]1C[C@@]2(C)Oc1nc(-c2cnn(C)c2)cn2nccc12 [Example 191, 1-((1S,5S,6R)-6-methyl-6-((6-(1-methyl-1H-pyrazol-4-yl)pyrazolo[1,5-a]pyrazin-4-yl)oxy)-2-azabicyclo[3.2.0]heptan-2-yl)prop-2-en-1-one] | 1000 to 10000 |  |
| C=CC(=O)N1C[C@@H]2C[C@@](C)(Oc3nc(-c4cnn(C)c4)cn4nccc34)[C@@H]2C1 [Example 199, 1-((1R,5S,6R)-6-methyl-6-((6-(1-methyl-1H-pyrazol-4-yl)pyrazolo[1,5-a]pyrazin-4-yl)oxy)-3-azabicyclo[3.2.0]heptan-3-yl)prop-2-en-1-one] | 1000 to 10000 |  |
| C=CC(=O)N1C[C@H]2C[C@](C)(Oc3nc(-c4cnn(C)c4)cn4nccc34)[C@H]2C1 [Example 200, 1-((1S,5R,6S)-6-methyl-6-((6-(1-methyl-1H-pyrazol-4-yl)pyrazolo[1,5-a]pyrazin-4-yl)oxy)-3-azabicyclo[3.2.0]heptan-3-yl)prop-2-en-1-one] | < 1000 |  |
| Cn1cc(-c2cc3nccn3c(O[C@]3(C)C[C@H](N(C)C(=O)/C=C/C(F)(F)F)C3)n2)cn1 [Example 201, (E)-4,4,4-trifluoro-N-methyl-N-((1s,3s)-3-methyl-3-((7-(1-methyl-1H-pyrazol-4-yl)imidazo[1,2-c]pyrimidin-5-yl)oxy)cyclobutyl)but-2-enamide] |  | IC50 [2]: 1 to 10 nM |
| C=CC(=O)N1CCC2(CC1)CC(Oc1nc(-c3cnn(C)c3)cn3nccc13)C2 [Example 208, 1-(2-((6-(1-methyl-1H-pyrazol-4-yl)pyrazolo[1,5-a]pyrazin-4-yl)oxy)-7-azaspiro[3.5]nonan-7-yl)prop-2-en-1-one] |  | IC50 [2]: 10 to 1000 nM |
| C=CC(=O)N1C[C@@H]2[C@@H](COc3nc(-c4cnn(C)c4)cn4nccc34)[C@@H]2C1 [Example 214, 1-((1R,5S,6r)-6-(((6-(1-methyl-1H-pyrazol-4-yl)pyrazolo[1,5-a]pyrazin-4-yl)oxy)methyl)-3-azabicyclo[3.1.0]hexan-3-yl)prop-2-en-1-one] | < 1000 |  |
| C=CC(=O)N(C)[C@H]1C[C@@H](Oc2nc(-c3cnn(C)c3)cn3nccc23)C1 [Example 215, N-methyl-N-((cis)-3-((6-(1-methyl-1H-pyrazol-4-yl)pyrazolo[1,5-a]pyrazin-4-yl)oxy)cyclobutyl)acrylamide] | 1000 to 10000 |  |
| C=CC(=O)N(C)CC1(COc2nc(-c3cnn(C)c3)cn3nccc23)CC1 [Example 216, N-methyl-N-((1-(((6-(1-methyl-1H-pyrazol-4-yl)pyrazolo[1,5-a]pyrazin-4-yl)oxy)methyl)cyclopropyl)methyl)acrylamide] |  | IC50 [2]: 10 to 1000 nM |
| C=CC(=O)N(C)[C@H]1C[C@](C)(Oc2nc(-c3cnn(C)c3)cn3nccc23)C1 [Example 217, N-methyl-N-((1r,3r)-3-methyl-3-((6-(1-methyl-1H-pyrazol-4-yl)pyrazolo[1,5-a]pyrazin-4-yl)oxy)cyclobutyl)acrylamide] |  | IC50 ([1]; Homo sapiens, B-cell): 1000 to 10000 nM |
| C=CC(=O)N1C[C@@H]2[C@H](COc3nc(-c4cnn(C)c4)cn4nccc34)[C@@H]2C1 [Example 221, 1-((1R,5S,6s)-6-(((6-(1-methyl-1H-pyrazol-4-yl)pyrazolo[1,5-a]pyrazin-4-yl)oxy)methyl)-3-azabicyclo[3.1.0]hexan-3-yl)prop-2-en-1-one] | 1000 to 10000 |  |
| CC#CC(=O)N(C)[C@H]1C[C@@H](Oc2nc(-c3cnn(C)c3)c(F)n3nccc23)C1 [Example 222, N-((cis)-3-((7-fluoro-6-(1-methyl-1H-pyrazol-4-yl)pyrazolo[1,5-a]pyrazin-4-yl)oxy)cyclobutyl)-N-methylbut-2-ynamide] |  | IC50 [2]: 10 to 1000 nM |
| CC#CC(=O)N(CCF)[C@H]1C[C@H](Oc2nc(-c3cnn(C)c3)cn3nccc23)C1 [Example 223, N-(2-fluoroethyl)-N-((trans)-3-((6-(1-methyl-1H-pyrazol-4-yl)pyrazolo[1,5-a]pyrazin-4-yl)oxy)cyclobutyl)but-2-ynamide] |  | IC50 [2]: 10 to 1000 nM |
| C=CC(=O)N(C)C12CCCC(Oc3nc(-c4cnn(C)c4)cn4nccc34)(C1)C2 [Example 225, N-methyl-N-(5-((6-(1-methyl-1H-pyrazol-4-yl)pyrazolo[1,5-a]pyrazin-4-yl)oxy)bicyclo[3.1.1]heptan-1-yl)acrylamide] | < 1000 |  |
| Cn1cc(-c2cn3nccc3c(O[C@H]3C[C@H](N(C)C(=O)/C=C/CCl)C3)n2)cn1 [Example 227, (E)-4-chloro-N-methyl-N-((trans)-3-((6-(1-methyl-1H-pyrazol-4-yl)pyrazolo[1,5-a]pyrazin-4-yl)oxy)cyclobutyl)but-2-enamide] |  | IC50 [2]: < 1 nM |
| Cn1cc(-c2cn3nccc3c(O[C@]3(C)C[C@H](N(C)C(=O)C4=CCC4)C3)n2)cn1 [Example 230, N-methyl-N-((1s,3s)-3-methyl-3-((6-(1-methyl-1H-pyrazol-4-yl)pyrazolo[1,5-a]pyrazin-4-yl)oxy)cyclobutyl)cyclobut-1-ene-1-carboxamide] |  | IC50 [2]: 1 to 10 nM |
